Test results from ChEMBL document CHEMBL1151105, “Antitumor principles in mosses: the first isolation and identification of maytansinoids, including a novel 15-methoxyansamitocin P-3” (J Nat Prod, 1988).
Activity calls are given as the source filed them. No cut-off for these calls is given here.

Test system: P388
Assay: Cytotoxicity against mouse P388 cells after 48 hrs
Type: functional, cell-based

Row | SMILES | Activity
1 | COc1cc2cc(c1Cl)N(C)C(=O)C[C@H](OC(=O)C(C)C)[C@]1(C)O[C@H]1[C@H](C)[C@@H]1C[C@@](O)(NC(=O)O1)[C@H](OC)/C=C/C=C(\C)C2 | Active
2 | COc1cc2cc(c1Cl)N(C)C(=O)C[C@H](OC(=O)C(C)N(C)C(=O)C(C)C)[C@]1(C)O[C@H]1[C@H](C)[C@@H]1C[C@@](O)(NC(=O)O1)[C@H](OC)/C=C/C=C(\C)C2OC (some centres undefined) | Active
3 | COc1cc2cc(c1Cl)N(C)C(=O)C[C@H](OC(=O)C(C)N(C)C(=O)C(C)C)[C@]1(C)O[C@H]1[C@H](C)[C@@H]1C[C@@](O)(NC(=O)O1)[C@H](OC)/C=C/C=C(\C)C2 (some centres undefined) | Active
4 | COc1cc2cc(c1Cl)N(C)C(=O)C[C@H](OC(=O)C(C)C)[C@]1(C)O[C@H]1[C@H](C)[C@@H]1C[C@@](O)(NC(=O)O1)[C@H](OC)/C=C/C=C(\C)C2OC (some centres undefined) | Active
